{"source": "patent US7592336B2", "about": "“Hepatitis C virus inhibitors” (Bristol-Myers Squibb Company, priority 2005, dated 2009)", "system": "HCV replicon in HUH-7 cells", "assay": "HCV replicon FRET assay", "type": "cell-based, HCV strain 1b", "details": "Hepatitis C virus", "text": "An HCV replicon whole cell system was established as described by Lohmann V, Korner F, Koch J, Herian U, Theilmann L, Bartenschlager R., Science 285(5424):110-3 (1999). This system enabled us to evaluate the effects of our HCV Protease compounds on HCV RNA replication. Briefly, using the HCV strain 1b sequence described in the Lohmann paper (Assession number: AJ238799), an HCV cDNA was synthesized by Operon Technologies, Inc. (Alameda, Calif.), and the full-length replicon was then assembled in plasmid pGem9zf(+) (Promega, Madison, Wis.) using standard molecular biology techniques. The replicon consists of (i) the HCV 5′ UTR fused to the first 12 amino acids of the capsid protein, (ii) the neomycin phosphotransferase gene (neo), (iii) the IRES from encephalomyocarditis virus (EMCV), and (iv) HCV NS3 to NS5B genes and the HCV 3′ UTR. Plasmid DNAs were linearized with ScaI and RNA transcripts were synthesized in vitro using the T7 MegaScript transcription kit (Ambion, Austin, Tex.) according to manufacturer's directions. In vitro transcripts of the cDNA were transfected into the human hepatoma cell line, HUH-7. […] Resulting cell lines were characterized for positive and negative strand RNA production and protein production over time.\nThe HCV replicon FRET assay was developed to monitor the inhibitory effects of compounds described in the disclosure on HCV viral replication. HUH-7 cells, constitutively expressing the HCV replicon, were grown in Dulbecco's Modified Eagle Media (DMEM) (Gibco-BRL) containing 10% Fetal calf serum (FCS) (Sigma) and 1 mg/ml G418 (Gibco-BRL). Cells were seeded the night before (1.5×10^4 cells/well) in 96-well tissue-culture sterile plates. Compound and no compound controls were prepared in DMEM containing 4% FCS, 1:100 Penicillin/Streptomysin (Gibco-BRL), 1:100 L-glutamine and 5% DMSO in the dilution plate (0.5% DMSO final concentration in the assay). Compound/DMSO mixes were added to the cells and incubated for 4 days at 37° C. After 4 days, cells were first assessed for cytotoxicity using alamar Blue (Trek Diagnotstic Systems) for a CC50 reading. The toxicity of compound (CC50) was determined by adding 1/10th volume of alamar Blue to the media incubating the cells. After 4 h, the fluorescence signal from each well was read, with an excitation wavelength at 530 nm and an emission wavelength of 580 nm, using the Cytofluor Series 4000 (Perspective Biosystems). Plates were then rinsed thoroughly with Phosphate-Buffered Saline (PBS) (3 times 150 μl). The cells were lysed with 25 μl of a lysis assay reagent containing an HCV protease substrate (5× cell Luciferase cell culture lysis reagent (Promega #E153A) diluted to 1× with distilled water, NaCl added to 150 mM final, the FRET peptide substrate (as described for the enzyme assay above) diluted to 10 μM final from a 2 mM stock in 100% DMSO. […]. The plate was then placed into the Cytofluor 4000 instrument which had been set to 340 nm excitation/490 nm emission, automatic mode for 21 cycles and the plate read in a kinetic mode. EC50 determinations were carried out as described for the IC50 determinations.", "note": "Where two headings read alike, the source gives them in different places."}
{"compound": "C=C[C@@H]1C[C@]1(NC(=O)[C@@H]1C[C@@](O)(c2ccc(-c3ccccc3)cc2)CN1C(=O)[C@@H](NC(=O)OC(C)(C)C)C(C)(C)C)C(=O)NS(=O)(=O)C1CC1", "note": "[Compound 3]", "values": [{"measurement": "EC50", "setting": "96 h, HUH-7 replicon cells, 4 days, read-out: EC50 in the replicon FRET assay", "value": 28, "unit": "nM"}, {"measurement": "EC50", "setting": "Huh-7, HCV replicon cell assay, read-out: Activity Range (EC50)", "value": "10 to 1000", "unit": "nM"}]}
